Assay results reported in US20110172147A1, “NEUROPEPTIDE-2 RECEPTOR (Y-2R) AGONISTS” (priority 2009, published 2011).

Key:
Type in all cases: cell-based
Y1R = target: T1, Y1R (Homo sapiens, UniProt P25929); experiment: CaFlux Assay (FLIPR), Y1R
T1 sequence (P25929 1-384): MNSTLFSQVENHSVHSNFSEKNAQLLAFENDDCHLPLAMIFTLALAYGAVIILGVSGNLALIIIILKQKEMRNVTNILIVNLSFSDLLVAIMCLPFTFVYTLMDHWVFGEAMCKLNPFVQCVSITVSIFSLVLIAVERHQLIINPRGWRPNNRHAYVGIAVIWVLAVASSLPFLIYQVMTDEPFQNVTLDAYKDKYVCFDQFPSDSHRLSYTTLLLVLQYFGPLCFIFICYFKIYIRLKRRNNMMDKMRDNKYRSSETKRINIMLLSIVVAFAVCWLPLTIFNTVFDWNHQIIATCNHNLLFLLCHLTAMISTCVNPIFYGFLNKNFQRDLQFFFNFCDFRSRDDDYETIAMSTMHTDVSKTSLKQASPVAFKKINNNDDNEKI

Y4R = Y4R (Homo sapiens, UniProt P50391); experiment: CaFlux Assay (FLIPR), Y4R
Sequence of Y4R (P50391 whole entry): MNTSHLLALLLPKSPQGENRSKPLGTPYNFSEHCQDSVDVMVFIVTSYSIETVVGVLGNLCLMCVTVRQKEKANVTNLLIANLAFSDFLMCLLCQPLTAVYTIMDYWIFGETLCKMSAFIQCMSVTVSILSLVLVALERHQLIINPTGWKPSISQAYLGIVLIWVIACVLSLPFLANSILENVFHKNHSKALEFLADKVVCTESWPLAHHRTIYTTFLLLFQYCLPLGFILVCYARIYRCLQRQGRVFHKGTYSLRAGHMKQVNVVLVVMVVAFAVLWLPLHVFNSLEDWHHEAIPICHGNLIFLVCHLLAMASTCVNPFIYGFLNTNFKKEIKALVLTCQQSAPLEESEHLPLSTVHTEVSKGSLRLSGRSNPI

Y5R = target: T2, Y5R (Homo sapiens, UniProt Q15761); experiment: CaFlux Assay (FLIPR), Y5R
T2 sequence (Q15761 1-445): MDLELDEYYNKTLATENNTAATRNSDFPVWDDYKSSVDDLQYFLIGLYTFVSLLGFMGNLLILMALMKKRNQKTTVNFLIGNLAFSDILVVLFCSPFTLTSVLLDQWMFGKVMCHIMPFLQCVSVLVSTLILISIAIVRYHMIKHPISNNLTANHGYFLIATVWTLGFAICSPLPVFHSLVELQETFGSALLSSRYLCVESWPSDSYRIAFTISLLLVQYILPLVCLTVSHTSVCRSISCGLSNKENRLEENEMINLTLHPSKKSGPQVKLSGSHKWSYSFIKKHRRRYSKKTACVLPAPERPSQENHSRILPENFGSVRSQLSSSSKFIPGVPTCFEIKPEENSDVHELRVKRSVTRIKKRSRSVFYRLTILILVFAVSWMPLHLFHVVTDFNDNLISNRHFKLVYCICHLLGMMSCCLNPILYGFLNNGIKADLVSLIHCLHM

hNPY2R [1] = target: T3, hNPY2R (Homo sapiens, UniProt P49146); experiment: cAMP Agonist Assay, HEK293/hNPY2R; parameters: expressed in transfected cells; host or cells: HEK293/hNPY2R (G418 selection)
T3 sequence (P49146 1-381): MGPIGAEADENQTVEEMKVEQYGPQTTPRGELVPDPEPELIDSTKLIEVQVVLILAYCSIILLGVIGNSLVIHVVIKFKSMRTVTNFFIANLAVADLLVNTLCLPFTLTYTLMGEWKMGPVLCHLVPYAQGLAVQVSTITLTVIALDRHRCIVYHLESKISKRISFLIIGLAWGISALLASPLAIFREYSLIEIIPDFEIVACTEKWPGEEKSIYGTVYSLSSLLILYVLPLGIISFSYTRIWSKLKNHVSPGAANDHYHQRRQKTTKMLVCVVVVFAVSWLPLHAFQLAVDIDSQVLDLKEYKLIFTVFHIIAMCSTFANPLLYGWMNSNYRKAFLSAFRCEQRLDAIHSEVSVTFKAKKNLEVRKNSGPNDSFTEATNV
Procedure: In this example, the following materials were used: 384-well plate; Tropix cAMP-Screen Kit; cAMP ELISA System (Applied Biosystems, cat. #T1505; CS 20000); Forskolin (Calbiochem cat. # 344270); cells: HEK293/hNPY2R; growth medium: Dulbecco's modified eagle medium (D-MEM, Gibco); 10% Fetal bovine serum (FBS, Gibco), heat-inactivated; 1% Penicillin/Streptomycin (Pen 10000 unit/mL: Strep […], Gibco); […] G418 (Geneticin, Gibco cat. # 11811-031); and plating medium: DMEM/F12 w/o phenol red (Gibco); 10% FBS (Gibco, cat. # 10082-147), heat-inactivated; 1% Penicillin/Streptomycin (Gibco, cat. # 15140-122); […] G418 (Geneticin, Gibco, cat. # 11811-031).
On the first day, medium was discarded, and the monolayer cells were washed with 10 mL PBS per flask (T225). After decanting with PBS, 5 mL VERSENE (Gibco, cat #1504006) was used to dislodge the cells (5 min @37 C). The flask was gently tapped and the cell suspension was pooled. Each flask was rinsed with 10 mL plating medium and centrifuged at 1000 rpm for 5 min. The suspension was pooled and counted. The suspension was resuspended in plating medium at a density of 2.0×10^5 cells/mL for HEK293/hNPY2R. 50 microliters of cells (HEK293/hNPY2R-10,000 cells/well) were transferred into the 384-well plate using Multi-drop dispenser. The plates were incubated at 37° C. overnight. On the second day, the cells were checked for 75-85% confluence. The media and reagents were allowed to come to room temperature. Before the dilutions were prepared, the stock solution of stimulating compound in dimethyl sulphoxide (DMSO, Sigma, cat #D2650) was allowed to warm up to 32 C for 5-10 min. The dilutions were prepared in DMEM/F12 with 0.5 mM 3-Isobutyl-1-methylxanthine (IBMX, Calbiochem, cat #410957) and 0.5 mg/mL BSA. The final DMSO concentration in the stimulation medium was 1.1% with Forskolin concentration of 5 μM. The cell medium was tapped off with a gentle inversion of the cell plate on a paper towel. 50 μL of stimulation medium was placed per well (each concentration done in four replicates). The plates were incubated at room temperature for 30 min, and the cells were checked under a microscope for toxicity. After 30 minutes of treatment, the stimulation media was discarded and […] of Assay Lysis Buffer (provided in the Tropix kit) was added. The plates were incubated for 45 min @ 37° C. 20 μL of the lysate was transferred from stimulation plates into the pre-coated antibody plates (384-well) from the Tropix kit. 10 μL of AP conjugate and 20 μL of anti-cAMP antibody was added. The plates were incubated at room temperature while shaking for 1 hour. The plates were then washed 5 times with Wash Buffer, 70 μL per well for each wash. The plates were tapped to dry. 30 μL/well of CSPD/Saphire-II RTU substrate/enhancer solution was added and incubated for 45 min @ RT (shake). Signal for 1 sec/well in a Luminometer. (VICTOR-V) was measured.

hNPY2R [2] = target: T3, hNPY2R; experiment: CaFlux Assay (FLIPR), Y2R; parameters: expressed in transfected cells; host or cells: HEK-293 stably transfected with G protein chimera Gαqi9
Procedure: HEK-293 cells were stably transfected with the G protein chimera Gαqi9 and the hygromycin-B resistance gene were further transfected with the human NPY2 receptor and G418 antibiotic selection. Following selection in both hygromycin-B and G418, individual clones were assayed for their response to PYY. The transfected cells were cultured in DMEM medium supplemented with 10% fetal bovine serum, 50 μg/mL hygromycin-B, 2 mM glutamine, 100 U/mL penicillin, 100 μg/mL streptomycin and 250 μg/mL G418. Cells are harvested with trypsin-EDTA and counted using ViaCount reagent. The cell suspension volume is adjusted to 4.8×10^5 cells/mL with complete growth media. Aliquots of 25 μL are dispensed into 384 well Poly-D Lysine coated black/clear microplates (Falcon) and the microplates were placed in a 37° C. CO2 incubator overnight. Loading Buffer (Calcium-3 Assay Kit, Molecular Devices) was prepared by dissolving the contents of one vial (Express Kit) into […] Hank's Balanced Salt Solution containing 20 mM HEPES and 5 mM probenecid. Aliquots of 25 μL of diluted dye were dispensed into the cell plates and the plates are then incubated for 1 hour at 37° C. During the incubation, test compounds were prepared at 3.5× the desired concentration in HBSS (20 mM HEPES)/0.05% BSA/1% DMSO and transferred to a 384-well plate for use on FLIPR. After incubation, both the cell and compound plates were brought to the FLIPR and 20 μL of the diluted compounds were transferred to the cell plates by the FLIPR. During the assay, fluorescence readings were taken simultaneously from all 384 wells of the cell plate every 1.5 seconds. Five readings were taken to establish a stable baseline, and then 20 μL of sample was rapidly (30 μL/sec) and simultaneously added to each well of the cell plate. The fluorescence was continuously monitored before, during and after sample addition for a total elapsed time of 100 seconds. Responses (increase in peak fluorescence) in each well following addition were determined. The initial fluorescence reading from each well, prior to ligand stimulation, was used as a zero baseline value for the data from that well. The responses are expressed as % of maximal response of the positive control.

With `CCCCCCCCCCCCCCCC(=O)NCCCCCC(=O)N[C@H](C(=O)N[C@@H](CCCCNC(=O)CCOCCOCCOCCOCCOCCOCCOCCOCCOCCOCCOCCOCCOCCOCCOCCOC)C(=O)N1CCN(c2ccc3ncn(CC(=O)N[C@@H](CCCNC(N)=O)C(=O)N[C@@H](Cc4c[nH]cn4)C(=O)N[C@@H](Cc4ccc(O)cc4)C(=O)N[C@@H](CC(C)C)C(=O)N[C@@H](CC(N)=O)C(=O)N[C@@H](Cc4c[nH]c5ccccc45)C(=O)N[C@H](C(=O)N[C@H](C(=O)N[C@@H](CCCNC(=N)N)C(=O)N[C@@H](CCC(N)=O)C(=O)N(C)[C@@H](CCCNC(=N)N)C(=O)N[C@@H](Cc4ccc(O)cc4)C(N)=O)[C@@H](C)O)C(C)C)c(=O)c3c2)CC1)[C@@H](C)CC` [Example 32] the EC50 (Y1R) was > 6000 nM, the EC50 (Y4R) was > 6000 nM and the EC50 (Y5R) was 4760 nM. The EC50 (hNPY2R [1]) was 0.23 nM and the EC50 (hNPY2R [2]) was 0.15 nM.
`CCCCCCCCCCCCCCCC(=O)NCCCCCC(=O)NCCCCCC(=O)N[C@H](C(=O)N[C@@H](CCCCNC(=O)CCOCCOCCOCCOCCOCCOCCOCCOCCOCCOCCOCCOC)C(=O)N1CCN(c2ccc3ncn(CC(=O)N[C@@H](CCCNC(=N)N)C(=O)N[C@@H](Cc4c[nH]cn4)C(=O)N[C@@H](Cc4ccc(O)cc4)C(=O)N[C@@H](CC(C)C)C(=O)N[C@@H](CC(N)=O)C(=O)N[C@@H](Cc4c[nH]c5ccccc45)C(=O)N[C@H](C(=O)N[C@H](C(=O)N[C@@H](CCCNC(=N)N)C(=O)N[C@@H](CCC(N)=O)C(=O)N(C)[C@@H](CCCNC(=N)N)C(=O)N[C@@H](Cc4ccc(O)cc4)C(N)=O)[C@@H](C)O)C(C)C)c(=O)c3c2)CC1)[C@@H](C)CC` [Example 40] was tested, and the EC50 (Y1R) was > 6000 nM, the EC50 (Y4R) was > 6000 nM and the EC50 (Y5R) was 820 nM. For the same compound, the EC50 (hNPY2R [1]) was 0.11 nM and the EC50 (hNPY2R [2]) was 0.058 nM.
`CC[C@H](C)[C@H](NC(=O)CCCCCNC(=O)CCOCCOCCOCCOCCOCCOCCOCCOCCOCCOCCOCCOCCOCCOCCOCCOC)C(=O)N[C@@H](CCCCN)C(=O)N1CCN(c2ccc3ncn(CC(=O)N[C@@H](CCCNC(=N)N)C(=O)N[C@@H](Cc4c[nH]cn4)C(=O)N[C@@H](Cc4ccc(O)cc4)C(=O)N[C@@H](CC(C)C)C(=O)N[C@@H](CC(N)=O)C(=O)N[C@@H](Cc4c[nH]c5ccccc45)C(=O)N[C@H](C(=O)N[C@H](C(=O)N[C@@H](CCCNC(=N)N)C(=O)N[C@@H](CCC(N)=O)C(=O)N(C)[C@@H](CCCNC(=N)N)C(=O)N[C@@H](Cc4ccc(O)cc4)C(N)=O)[C@@H](C)O)C(C)C)c(=O)c3c2)CC1` [Example 19] was tested, and the EC50 (Y1R) was > 6000 nM, the EC50 (Y4R) was > 6000 nM and the EC50 (Y5R) was > 6000 nM. It also gave an EC50 (hNPY2R [1]) of 0.26 nM and an EC50 (hNPY2R [2]) of 0.424 nM.
For `CC[C@H](C)[C@H](NC(=O)CCCCCNC(=O)CCOCCOCCOCCOCCOCCOCCOCCOCCOCCOCCOCCOCCOCCOCCOCCOCCOCCOCCOCCOCCOCCOCCOCCOC)C(=O)N[C@@H](CCCCN)C(=O)N1CCN(c2ccc3ncn(CC(=O)N[C@@H](CCCNC(=N)N)C(=O)N[C@@H](Cc4c[nH]cn4)C(=O)N[C@@H](Cc4ccc(O)cc4)C(=O)N[C@@H](CC(C)C)C(=O)N[C@@H](CC(N)=O)C(=O)N[C@@H](Cc4c[nH]c5ccccc45)C(=O)N[C@H](C(=O)N[C@H](C(=O)N[C@@H](CCCNC(=N)N)C(=O)N[C@@H](CCC(N)=O)C(=O)N(C)[C@@H](CCCNC(=N)N)C(=O)N[C@@H](Cc4ccc(O)cc4)C(N)=O)[C@@H](C)O)C(C)C)c(=O)c3c2)CC1` [Example 20], the EC50 (Y1R) was > 6000 nM, the EC50 (Y4R) was > 6000 nM and the EC50 (Y5R) was > 6000 nM. It also gave an EC50 (hNPY2R [1]) of 0.89 nM and an EC50 (hNPY2R [2]) of 0.488 nM.
With `CCCCCCCCCCCCCCCCCCCC(=O)N[C@@H](CCC(=O)N[C@@H](CCC(=O)NCCCC[C@H](NC(=O)[C@@H](NC(=O)CCOCCOCCOCCOCCOCCOCCOCCOCCOCCOCCOCCOC)[C@@H](C)CC)C(=O)N1CCN(c2ccc3ncn(CC(=O)N[C@@H](CCCNC(=N)N)C(=O)N[C@@H](Cc4c[nH]cn4)C(=O)N[C@@H](Cc4ccc(O)cc4)C(=O)N[C@@H](CC(C)C)C(=O)N[C@@H](CC(N)=O)C(=O)N[C@@H](Cc4c[nH]c5ccccc45)C(=O)N[C@H](C(=O)N[C@H](C(=O)N[C@@H](CCCNC(=N)N)C(=O)N[C@@H](CCC(N)=O)C(=O)N(C)[C@@H](CCCNC(=N)N)C(=O)N[C@@H](Cc4ccc(O)cc4)C(N)=O)[C@@H](C)O)C(C)C)c(=O)c3c2)CC1)C(=O)O)C(=O)O` [Example 24] the “Y5R FLIPR agonist character (partial agonist mark)” value (Y5R; FLIPR) was “P.A”.
